Counter-ions that a name gives are not always drawn. Like-named read-outs stand apart in the source and are kept apart here.
Molecular target: T1, BCRP (Homo sapiens, UniProt Q9UNQ0)
T1 sequence (Q9UNQ0 1-655): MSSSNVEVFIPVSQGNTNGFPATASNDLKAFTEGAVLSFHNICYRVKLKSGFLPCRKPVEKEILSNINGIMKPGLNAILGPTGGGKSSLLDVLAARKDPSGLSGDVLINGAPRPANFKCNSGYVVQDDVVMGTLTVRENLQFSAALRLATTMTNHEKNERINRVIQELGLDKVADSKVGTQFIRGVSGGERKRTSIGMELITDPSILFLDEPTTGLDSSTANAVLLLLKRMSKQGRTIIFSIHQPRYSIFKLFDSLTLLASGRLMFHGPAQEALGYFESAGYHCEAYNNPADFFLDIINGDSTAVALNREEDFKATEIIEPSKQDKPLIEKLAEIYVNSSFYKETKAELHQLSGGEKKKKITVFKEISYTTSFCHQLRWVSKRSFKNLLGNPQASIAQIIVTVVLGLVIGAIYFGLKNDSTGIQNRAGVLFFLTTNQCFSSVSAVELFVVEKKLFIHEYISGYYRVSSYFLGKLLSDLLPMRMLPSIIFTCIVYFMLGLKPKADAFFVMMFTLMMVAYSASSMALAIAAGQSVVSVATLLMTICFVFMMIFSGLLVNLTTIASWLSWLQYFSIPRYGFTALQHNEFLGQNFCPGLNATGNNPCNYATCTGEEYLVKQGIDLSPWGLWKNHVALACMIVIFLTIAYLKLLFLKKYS
Test: Membrane vesicle transport inhibition assay: BCRP-mediated [3H]-E1S uptake
Conditions: for Decrease of BCRP-mediated transport compared to control: toxin 1 mM; for Mode of inhibition of BCRP-mediated transport: Dixon plot, three [3H]-E1S concentrations; for IC50: IC50, [3H]-E1S uptake into BCRP membrane vesicles, 1 min, 37°C, mean ± SEM of three experiments; for IC20 at 1 min: human, membrane vesicles from HEK293 cells overexpressing BCRP, pH 7, probe [3H]-estrone sulfate ([3H]-E1S)
Method: Human embryonic kidney (HEK293; purchased at American Type Culture Collection, Manassas, VA) cells were cultured in Dulbecco's modified Eagle's medium (Invitrogen life sciences, Breda, the Netherlands) containing 10% (v/v) fetal calf serum (MP Biomedicals, Uden, the Netherlands) at 37°C in a 5% (v/v) CO2 atmosphere. To functionally overexpress MRP4 and BCRP, HEK293 cells were transduced with baculoviruses of human MRP4, BCRP or enhanced yellow fluorescent protein (EYFP), generated via the Bac-to-Bac system (Invitrogen) as previously described. To transduce HEK293 cells, they were cultured in 500 cm^2 flasks until 70% confluence. Subsequently, medium was removed and 10 ml of virus and 25 ml of medium were added and incubated for 30 min at 37°C. Next, 50 ml of medium was added and after 2 h of transduction 5 mM sodium butyrate was added.
Three days after transduction, cells were harvested and pelleted by centrifugation (30 min at 4,000 x g). Afterwards, the cells were resuspended in ice-cold hypotonic TS buffer (0.5 mM sodium phosphate, 0.1 mM EDTA, pH 7.0) containing protease inhibitors (100 µM phenylmethylsulfonyl fluoride, 5 µg/ml aprotinin, 5 µg/ml leupeptin, 1 µg/ml pepstatin and 1 µg/ml E-64) and shaken for 30 min at 4°C. Cells were then centrifuged at 100,000 x g for 30 min at 4°C. Subsequently, pellet was resuspended in ice-cold isotonic buffer (10 mM Tris-HEPES and 250 mM sucrose, pH 7.4, adjusted with HEPES) supplemented with protease inhibitors and homogenized using a tight fitting Dounce homogenizer followed by centrifugation (1,000 x g, 20 min, 4°C). Afterwards, supernatant was centrifuged at 100,000 x g for 1 h at 4°C. The resulting pellet was resuspended in isotonic buffer and passed through a 27-gauge needle 25 times to obtain crude membrane vesicles. The protein content of samples was determined using the Bio-Rad protein assay (Veenendaal, the Netherlands), according to manufacturers recommendations. Vesicles were frozen in liquid nitrogen and stored at −80°C until use. The orientation of the membrane vesicles was not determined, since ATP-dependent uptake occurs only in inside-out vesicles.
A rapid filtration technique was used to study the uptake of [^3H]-MTX and [^3H]-E1S into MRP4 or BCRP membrane vesicles, as previously described. In short, 25 µl of TS buffer containing 4 mM ATP, 10 mM MgCl2 and radiolabeled substrate was added to 5 µl of the membrane vesicles (1.5 mg/ml). The transport assay was performed in the absence or presence of various concentrations of uremic toxins to evaluate the inhibitory effects of these compounds on MRP4-mediated [^3H]-MTX uptake and BCRP-mediated [^3H]-E1S uptake. […] Uptake was stopped by placing the samples on ice and the addition of 150 µl ice cold TS buffer. Subsequently, the samples were transferred to a 96 well filter plate (Millipore, Etten-leur, the Netherlands) pre-incubated with TS buffer and filtered using a Multiscreen HTS-Vacuum Manifold filtration device (Millipore). Afterwards, 2 ml of scintillation liquid was added to each filter and radioactivity was determined using liquid scintillation counting. As negative controls ATP was substituted for AMP and EYFP-membrane vesicles were used. Each experiment was performed in triplicates.
Statistics were performed using GraphPad Prism 5.02 via an unpaired t test or a Kruskal-Wallis test followed by a Dunn's Multiple Comparison test. Differences between groups were considered to be statistically significant when p<0.05. The mean IC50 and IC20 values were calculated from the inhibition curves used for the Dixon analysis and to determine the inhibition constant (Ki) from the Dixon plots. Transport inhibition studies were performed in triplicate and repeated at least three times.

[1] = [3H]-E1S uptake, result in words

Cc1ccc(S(=O)(=O)O)cc1 [p-toluenesulfonic acid, reference compound]
Effect on transport mediated by BCRP [1]: did not alter transport
Decrease of BCRP-mediated transport compared to control ([3H]-E1S uptake): ≤ 10%

O=C(O)Cc1c[nH]c2ccccc12 [indole-3-acetic acid]
Effect on transport mediated by BCRP [1]: only reduced [^3H]-MTX uptake by MRP4

O=S(=O)(O)Oc1c[nH]c2ccccc12 [indoxyl sulfate]
Ki: 500 µM
Mode of inhibition of BCRP-mediated transport: non-competitive
IC50: 770 ± 120 µM
IC20 at 1 min: 390 ± 30 µM

O=C(O)C(=O)O [oxalate]
Effect on transport mediated by BCRP [1]: did not alter transport
Decrease of BCRP-mediated transport compared to control ([3H]-E1S uptake): ≤ 10%

O=C(O)CNC(=O)c1ccccc1 [hippuric acid]
Ki: 4000 ± 100 µM
Extent of inhibition of [3H]-E1S uptake by BCRP (0.1 mM to 3.5 mM, result in words): completely blocked
Mode of inhibition of BCRP-mediated transport: non-competitive
IC50: 3670 ± 170 µM
IC20 at 1 min: 690 ± 70 µM

Cc1ccc(O)cc1 [p-cresol]
Effect on transport mediated by BCRP: did not alter transport
Decrease of BCRP-mediated transport compared to control ([3H]-E1S uptake): ≤ 10%

O=C(O)Cc1ccccc1 [phenylacetic acid]
Effect on transport mediated by BCRP [1]: only reduced [^3H]-MTX uptake by MRP4

NCCCCN [putrescine]
Effect on transport mediated by BCRP [1]: did not alter transport
Decrease of BCRP-mediated transport compared to control ([3H]-E1S uptake): ≤ 10%

O=C(O)c1cc(=O)c2ccccc2[nH]1 [kynurenic acid]
Ki: 50 µM
IC50: 40 ± 1 µM
IC20 at 1 min: 10 ± 1 µM

O=C(O)c1cccnc1C(=O)O [quinolinic acid]
Effect on transport mediated by BCRP [1]: did not alter transport
Decrease of BCRP-mediated transport compared to control ([3H]-E1S uptake): ≤ 10%

— PMC3070735, “Uremic Toxins Inhibit Transport by Breast Cancer Resistance Protein and Multidrug Resistance Protein 4 at Clinically Relevant Concentrations” (PLoS ONE, 2011)
